For 8 compounds, EC50 results are on record in US11980609B2, “LPA receptor antagonists and uses thereof” (Gilead Sciences, Inc., priority 2021, dated 2024).

A value given as a limit tells only on which side of the number the result lay.

This assay concerns the target T1, human LPAR1 (Homo sapiens, UniProt Q92633).
T1 construct: host or cells: CHO-K1
Kind of assay: LPAR1 intracellular calcium mobilization assay (antagonist mode). The assay is classed as cell-based. As to conditions: CHO-K1 EDG2 cells expressing human LPAR1; 60 min pre-incubation with compound (0.5 nM to 10 μM), then LPA 18:2 challenge; FLIPR Tetra calcium signal. As for the experimental part: In vitro LPAR1 activity was measured in an intracellular calcium mobilization assay.
CHO-K1 EDG2 cells (DiscoverX cat #93-0644C2) expressing human LPAR1 (NM_001401.3) were seeded in a total volume of 25 μL of Dulbecco's Modification of Eagle's Medium (DMEM) with 10% Fetal Bovine Serum, 1× PenStrepGlutamine, 300 μg/ml Hygromycin, and 800 μg/ml G418 into 384-well tissue culture plate (Grenier #781091) at 15,000 cells/well and incubated at 37° C. overnight. Prior to testing, 25 μL Calcium Loading Dye Component A (FLIPR Calcium 6 Assay Kit Molecular Device #R8190) and 2.5 mM Probenecid (Invitrogen #P36400, prepared fresh) in Hank's Balanced Salt Solution (Corning #21-023-CV), 20 mM HEPES (Corning #25-060-CI), 0.1% Bovine Serum Albumin (Sigma-Aldrich #A7906-500G) was add to the cells for 60 minutes at 37° C.
Agonist dose curves of LPA 18:2 (Avanti Polar Lipids cat #857138, 0.5 nM to 10 μM) were recorded to determine the LPA 18:2 EC80 for subsequent antagonist assays. For agonist dose curves, cells were removed from the incubator 2 hours after dye loading and transferred to the FLIPR Tetra instrument (Molecular Devices, San Jose, CA). Calcium mobilization was monitored for 5 min and 10 μL 6×LPA in HBSS/20 mM Hepes/0.1% bovine serum albumin (BSA) was added to the cells 5 seconds into the assay.
To determine the LPAR1 antagonist activity of test compounds, cells were pre-incubated with test compound at a dose range of 0.5 nM to 10 μM, followed by LPA at […] concentration (100 nM). After dye loading, cells were removed from the incubator and 0.3 μL of 200× antagonist was added. Cells were incubated for 60 minutes at 37° C. Antagonist activity was measured on a FLIPR Tetra. Calcium mobilization was monitored for 3.5 minutes and 10 μL 6×EC80 LPA in HBSS, 20 mM HEPES, and 0.1% BSA was added to the cells 5 seconds into the assay. Signal amplitude (Maximum minus minimum) values were plotted against log10 of antagonist concentration using Dose Response Tool (Gilead Sciences Inc.) to determine EC50.
To assess the antagonistic potential of exemplified compounds EC50 values were determined for Compounds 1 to 55 in the LPAR1 calcium mobilization assay. The compound numbers correspond to the compound numbers in Examples 1 to 35. N/A=not available.
On the technique in general: Calcium assays in cells follow changes in intracellular calcium, usually with a dye or a luminescent sensor.

T1 sequence (Q92633 whole entry): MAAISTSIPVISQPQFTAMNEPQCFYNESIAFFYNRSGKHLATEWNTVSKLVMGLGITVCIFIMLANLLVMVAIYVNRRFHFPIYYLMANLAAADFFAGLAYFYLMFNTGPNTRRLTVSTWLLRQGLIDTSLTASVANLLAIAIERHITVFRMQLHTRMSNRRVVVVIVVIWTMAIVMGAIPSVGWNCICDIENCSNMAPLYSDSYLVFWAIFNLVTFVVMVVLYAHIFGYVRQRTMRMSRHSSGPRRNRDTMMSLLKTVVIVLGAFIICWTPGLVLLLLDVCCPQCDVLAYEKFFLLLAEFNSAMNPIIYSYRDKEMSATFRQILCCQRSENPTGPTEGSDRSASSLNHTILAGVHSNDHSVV

For the compound `C[C@@H](OC(=O)Nc1c(-c2ncc(C(F)F)cn2)cnn1C)c1cc(F)cnc1F` [Compound 54, (R)-1-(2,5-difluoropyridin-3-yl)ethyl (4-(5-(difluoromethyl)pyrimidin-2-yl)-1-methyl-1H-pyrazol-5-yl)carbamate], the EC50 (in general, the midpoint of the concentration-response curve) is 2880 nM. Take `C[C@@H](OC(=O)Nc1c(-c2ncc(NC(=O)[C@@H]3C[C@H]3C(F)(F)F)cn2)cnn1C)c1cc(F)cnc1F` [Compound 29, (R)-1-(2,5-difluoropyridin-3-yl)ethyl (1-methyl-4-(5-((1R,2R)-2-(trifluoromethyl)cyclopropane-1-carboxamido)pyrimidin-2-yl)-1H-pyrazol-5-yl)carbamate]: the EC50 is under 4.6 nM. With `C[C@@H](OC(=O)Nc1c(-c2ncc(NC(=O)[C@]3(C)C[C@@H](C#N)C3)cn2)cnn1C)c1cc(F)cnc1F` [Compound 38, (R)-1-(2,5-difluoropyridin-3-yl)ethyl (4-(5-((1r,3R)-3-cyano-1-methylcyclobutane-1-carboxamido)pyrimidin-2-yl)-1-methyl-1H-pyrazol-5-yl)carbamate], the EC50 was 52.7 nM.

Consider `C[C@@H](OC(=O)Nc1c(-c2ccc(C(=O)NC34CC(F)(C3)C4)cn2)cnn1C)c1cccnc1Cl` [Compound 50], for which the EC50 was determined as 869 nM. The value for `COC1(C#N)CC(C(=O)Nc2cnc(-c3cnn(C)c3NC(=O)O[C@H](C)c3cc(F)cnc3F)nc2)C1` (stereo partly drawn) [Compound 43, (R)-1-(2,5-difluoropyridin-3-yl)ethyl (4-(5-(3-cyano-3-methoxycyclobutane-1-carboxamido)pyrimidin-2-yl)-1-methyl-1H-pyrazol-5-yl)carbamate] was 22.6 nM; that for `C[C@@H](OC(=O)Nc1c(-c2ccc(NS(C)(=O)=O)cc2)cnn1C)c1ccccc1Cl` [Compound 1, (R)-1-(2-chlorophenyl)ethyl (1-methyl-4-(4-(methylsulfonamido)phenyl)-1H-pyrazol-5-yl)carbamate] was 11.7 nM; that for `C[C@@H](OC(=O)Nc1c(-c2ncc(NS(C)(=O)=O)cn2)cnn1C)c1ccccc1F` [Compound 51, (R)-1-(2-fluorophenyl)ethyl (1-methyl-4-(5-(methylsulfonamido)pyrimidin-2-yl)-1H-pyrazol-5-yl)carbamate] was 36.4 nM. The value for `COC(=O)Nc1ccc(-c2cnn(C)c2NC(=O)O[C@H](C)c2cccc(F)c2)nc1C` [Compound 14, (R)-1-(3-fluorophenyl)ethyl (4-(5-((methoxycarbonyl)amino)-6-methylpyridin-2-yl)-1-methyl-1H-pyrazol-5-yl)carbamate] was 4180 nM.
